According to patent publication US20140051730A1, “THERAPEUTIC USE OF DIMIRACETAM TO PREVENT THE HAND AND FOOT SYNDROME CAUSED BY SORAFENIB” (NEUROTUNE AG, priority 2010, published 2014):

Columns and labels:
[1] = tested on: sorafenib induced allodynia; assay: Acute experiment: rat cold plate test, sorafenib allodynia; settings: for Acute antiallodynic efficacy on sorafenib induced allodynia (in words): single p.o. dose on day 14: dimiracetam 300, gabapentin 100, duloxetine 30 mg/kg, rat cold plate
Experimental: Male Sprague Dowley adult rats (200-220 g—aged 7 weeks) were used. Groups of 4 rats were housed in 26 by 41 cm cages that were placed in the experimental room 24 h before the test for acclimatization. The animals were fed a standard laboratory diet and tap water ad libitum and kept at 23±1° C. with a 12 h light/dark cycle, light on at 7 a.m. All experiments were carried out in accordance with the European Communities Council Directive of 24 Nov. 1986 (86/609/EEC) for experimental animal care. All efforts were made to minimize the number of animals used and their suffering.
Dimiracetam, duloxetine and gabapentin were dissolved in water. Drug concentrations were adjusted to a volume of 10 ml/kg for dosing by oral administration or i.p. injection. Sorafenib was dissolved in a vehicle composed by 1% ethanol+1% Cremophor+98% saline for i.p. injection.
Control rats were treated with an equal volume of the sorafenib vehicle. Sorafenib was administered once daily for 14 consecutive days. Dimiracetam, gabapentin and duloxetine were administered once daily on day 14 after sorafenib treatment.
Rats were placed inside a stainless steel container, thermostatically set at 4° C. in a precision water-bath from KW Mechanical Workshop, Siena, Italy. Reaction times (in seconds) were measured with a stop-watch before and at regular intervals; the endpoint used was the licking of the fore or hind paws. An arbitrary cut-off time of 60 s was adopted (see Beyreuther et al., Eur. J. Pharmacol. 565, 98-104, 2007).
All experimental results are given as the mean±S.E.M. An analysis of variance, ANOVA, followed by Fisher's protected least significant difference procedure for post hoc comparison, was used to verify significance between two means of behavioral results. Data were analyzed with the StatView software for the Macintosh (1992). P values≦0.05 were considered significant.

[2] = tested on: sorafenib induced allodynia; assay: Chronic experiment: rat cold plate test, sorafenib induced allodynia; type: in vivo; settings: for Licking latency, Before all Treatments: baseline, mean of 8 rats
Experimental: 1986 (86/609/EEC) for experimental animal care.
Dimiracetam, duloxetine and gabapentin were dissolved in water.
Sorafenib was dissolved in a vehicle constituted by 1% ethanol+1% Cremophor+[…]. Sorafenib was administered once daily for 14 days. Dimiracetam was administered by oral gavage twice daily for 14 days (co-administered with sorafenib).
P values≦0.05 were considered significant.

[3] = Blood levels in healthy volunteers during Phase I studies; type: in vivo; settings: 1600 bid dose (3200 mg daily)
Experimental: Blood levels were determined in healthy volunteers during Phase I studies.
The blood levels were determined for 1600 bid dose (i.e. 3200 mg daily).

[4] = 15 min after single p.o. dose (dimiracetam 300, gabapentin 100, duloxetine 30 mg/kg) on day 14 of sorafenib 10 mg/kg
[5] = 30 min after single p.o. dose (dimiracetam 300, gabapentin 100, duloxetine 30 mg/kg) on day 14 of sorafenib 10 mg/kg
[6] = 60 min after single p.o. dose (dimiracetam 300, gabapentin 100, duloxetine 30 mg/kg) on day 14 of sorafenib 10 mg/kg
[7] = baseline before all treatments, group later given test drug p.o. + sorafenib 10 mg/kg once daily 14 days, cold plate 4° C., mean ± S.E.M., 5 rats
[8] = day 14 of sorafenib 10 mg/kg, before single p.o. dose of test drug, cold plate 4° C.

## CNC(=O)c1cc(Oc2ccc(NC(=O)Nc3ccc(Cl)c(C(F)(F)F)c3)cc2)ccn1 [SORAFENIB, sorafenib]
[1]; baseline, group given sorafenib 10 mg/kg i.p. + water p.o.
  Licking latency, Pre test before all treatments: 28.6 ± 2.1 s
[1]; sorafenib 10 mg/kg i.p. once daily 14 days, 15 min after water p.o.
  Licking latency, 14° day 15 min: 14.0 ± 1.8 s
[1]; sorafenib 10 mg/kg i.p. once daily 14 days, 30 min after water p.o.
  Licking latency, 14° day 30 min: 13.6 ± 1.8 s
[1]; sorafenib 10 mg/kg i.p. once daily 14 days, 60 min after water p.o.
  Licking latency, 14° day 60 min: 14.4 ± 2.3 s
[1]; sorafenib 10 mg/kg i.p. once daily 14 days, before water p.o.
  Licking latency, 14° day Pre test: 13.8 ± 2.0 s
[1]; sorafenib 10 mg/kg i.p. once daily in rats, cold plate, day 14
  Induction of allodynia by sorafenib (in words): induced an allodynic responses to thermal stimuli
[2]; group given water + sorafenib 10 mg/kg i.p. once daily 14 days
  Licking latency, Before all Treatments: 26.9 ± 1.4 s
[2]; water + sorafenib 10 mg/kg i.p. once daily 14 days
  Licking latency, After 14 days of treatment, Pretest: 14.8 ± 1.3 s
[2]; water + sorafenib 10 mg/kg i.p. once daily 14 days, 1 h
  Licking latency, After 14 days of treatment, 1 h: 14.3 ± 1.4 s
[2]; water + sorafenib 10 mg/kg i.p. once daily 14 days, 4 h
  Licking latency, After 14 days of treatment, 4 h: 15.1 ± 1.5 s
[2]; water + sorafenib 10 mg/kg i.p. once daily 14 days, 8 h
  Licking latency, After 14 days of treatment, 8 h: 16.0 ± 1.1 s
[2]; water + sorafenib 10 mg/kg i.p. once daily 14 days, 24 h
  Licking latency, After 14 days of treatment, 24 h: 14.0 ± 1.1 s
[2]; water + sorafenib 10 mg/kg i.p. once daily 14 days, 48 h
  Licking latency, After 14 days of treatment, 48 h: 14.3 ± 1.2 s
[2]; water + sorafenib 10 mg/kg i.p. once daily 14 days, 72 h
  Licking latency, After 14 days of treatment, 72 h: 15.0 ± 1.0 s

## CNCC[C@H](Oc1cccc2ccccc12)c1cccs1 [DULOXETINE, duloxetine]
[1]; [4]
  Licking latency, 14° day 15 min: 14.2 ± 1.6 s
[1]; [5]
  Licking latency, 14° day 30 min: 14.6 ± 1.5 s
[1]; [6]
  Licking latency, 14° day 60 min: 13.4 ± 1.7 s
[1]; [7]
  Licking latency, Pre test before all treatments: 27.8 ± 1.7 s
[1]; [8]
  Licking latency, 14° day Pre test: 13.2 ± 1.2 s
[1]
  Acute antiallodynic efficacy on sorafenib induced allodynia (in words): no significant effect

## NCC1(CC(=O)O)CCCCC1 [GABAPENTIN, gabapentin]
[1]; [4]
  Licking latency, 14° day 15 min: 13.2 ± 1.8 s
[1]; [5]
  Licking latency, 14° day 30 min: 13.6 ± 1.2 s
[1]; [6]
  Licking latency, 14° day 60 min: 13.8 ± 1.8 s
[1]; [7]
  Licking latency, Pre test before all treatments: 26.8 ± 2.3 s
[1]; [8]
  Licking latency, 14° day Pre test: 15.4 ± 2.0 s
[1]
  Acute antiallodynic efficacy on sorafenib induced allodynia (in words): no significant effect

## O=C1CN2C(=O)CCC2N1 (centres unmarked) [DIMIRACETAM, 2,5-dioxohexahydro-1H-pyrrolo[1,2-a]imidazole]
[1]; [4]
  Licking latency, 14° day 15 min: 19.8 ± 1.5 s
[1]; [5]
  Licking latency, 14° day 30 min: 16.0 ± 1.9 s
[1]; [6]
  Licking latency, 14° day 60 min: 15.4 ± 1.4 s
[1]; [7]
  Licking latency, Pre test before all treatments: 26.8 ± 3.0 s
[1]; baseline, group given sorafenib vehicle i.p. + dimiracetam 300 mg/kg p.o. (no sorafenib)
  Licking latency, Pre test before all treatments: 27.2 ± 2.8 s
[1]; [8]
  Licking latency, 14° day Pre test: 15.8 ± 1.8 s
[1]
  Acute antiallodynic efficacy on sorafenib induced allodynia (in words): statistically significant effect on sorafenib induced allodynia 15 min after administration
[1]; vehicle i.p. 14 days (no sorafenib), before dimiracetam 300 mg/kg p.o.
  Licking latency, 14° day Pre test: 28.4 ± 2.1 s
[1]; vehicle i.p. (no sorafenib), 15 min after dimiracetam 300 mg/kg p.o.
  Licking latency, 14° day 15 min: 29.0 ± 1.9 s
[1]; vehicle i.p. (no sorafenib), 30 min after dimiracetam 300 mg/kg p.o.
  Licking latency, 14° day 30 min: 28.2 ± 2.3 s
[1]; vehicle i.p. (no sorafenib), 60 min after dimiracetam 300 mg/kg p.o.
  Licking latency, 14° day 60 min: 27.2 ± 3.0 s
[2]; group given dimiracetam 150 mg/kg p.o. b.i.d. + sorafenib 10 mg/kg i.p. once daily 14 days
  Licking latency, Before all Treatments: 27.3 ± 1.1 s
[2]; dimiracetam 150 mg/kg p.o. b.i.d. + sorafenib 10 mg/kg i.p. 14 days, 1 h after end of treatment
  Licking latency, After 14 days of treatment, 1 h: 23.8 ± 1.1 s
[2]; dimiracetam 150 mg/kg p.o. b.i.d. + sorafenib 10 mg/kg i.p. 14 days, 4 h after end of treatment
  Licking latency, After 14 days of treatment, 4 h: 23.3 ± 1.1 s
[2]; dimiracetam 150 mg/kg p.o. b.i.d. + sorafenib 10 mg/kg i.p. 14 days, 8 h after end of treatment
  Licking latency, After 14 days of treatment, 8 h: 22.8 ± 1.2 s
[2]; dimiracetam 150 mg/kg p.o. b.i.d. + sorafenib 10 mg/kg i.p. 14 days, 24 h after end of treatment
  Licking latency, After 14 days of treatment, 24 h: 21.9 ± 1.1 s
[2]; dimiracetam 150 mg/kg p.o. b.i.d. + sorafenib 10 mg/kg i.p. 14 days, 48 h after end of treatment
  Licking latency, After 14 days of treatment, 48 h: 19.0 ± 0.6 ^ s
[2]; dimiracetam 150 mg/kg p.o. b.i.d. + sorafenib 10 mg/kg i.p. 14 days, 72 h after end of treatment
  Licking latency, After 14 days of treatment, 72 h: 14.9 ± 0.6 s
[2]; dimiracetam 150 mg/kg p.o. b.i.d. + sorafenib 10 mg/kg i.p. 14 days, before last administration
  Licking latency, After 14 days of treatment, Pretest: 24.3 ± 0.8 s
[2]; dimiracetam 150 mg/kg p.o. b.i.d. for 14 consecutive days with sorafenib
  Duration of statistically significant antiallodynic effect after end of treatment: up to 48 h
[2]; dimiracetam 150 mg/kg p.o. b.i.d. for 14 consecutive days, evaluated on day 14
  Chronic antiallodynic effect (in words): statistically significant antiallodynic effect
[2]; general statement, no data given
  Development of tolerance (in words): not to develop tolerance
[3]
  Blood level, mean minimal level over 24 hours (Cmin): 136 µM
[3]; human, blood, read-out: Blood level, mean maximal level over 24 hours (Cmax)
  Cmax: 536 µM
